In patent publication US11254663B2 (BRISTOL-MYERS SQUIBB COMPANY, priority 2019, dated 2022) one finds EC50 data, which are given here for 22 compounds.

For one assay, the target named is FXR (Homo sapiens (Human), UniProt Q96RI1). In words: transient human FXR/Gal4-luciferase reporter assay.
Chain of FXR (Q96RI1 262-486): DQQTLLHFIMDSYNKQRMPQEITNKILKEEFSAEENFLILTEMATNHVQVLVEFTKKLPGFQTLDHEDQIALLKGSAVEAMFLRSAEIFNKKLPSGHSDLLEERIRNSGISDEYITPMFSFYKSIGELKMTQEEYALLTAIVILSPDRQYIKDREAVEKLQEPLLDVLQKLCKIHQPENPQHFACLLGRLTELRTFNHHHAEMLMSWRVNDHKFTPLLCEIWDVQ
Conditions: not given
Type of assay: cell-based. In a few lines:
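HEK293 cells stably carrying a 5×Gal4 response element–firefly luciferase reporter were transiently transfected overnight with a Gal4 DBD–human FXR LBD fusion plasmid. Compound was added in DMSO and cells were incubated overnight at 37 °C, 5% CO2. Activity was read as Steady-Glo luminescence.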
Background: Reporter assays use an easily measured gene product as a stand-in for the process of interest.
One may read the EC50 as the concentration giving half of the maximal effect. Low readings indicate an effect from little substance, high ones a need for much substance. `CC(C)(C)c1nc(C23CCC(CN(C(=O)C45CC(F)(C4)C5)c4cncc(-c5cnc6nc(C7CC7)sc6c5)c4)(CC2)CC3)no1` [Example 480, N-((4-(5-(tert-butyl)-1,2,4-oxadiazol-3-yl)bicyclo[2.2.2]octan-1-yl)methyl)-N-(5-(2-cyclopropylthiazolo[4,5-b]pyridin-6-yl)pyridin-3-yl)-3-fluorobicyclo[1.1.1]pentane-1-carboxamide] returned an EC50 of 988 nM. This counts as sub-micromolar.
On the same count and under the same terms, for `CCOc1ccc(-c2ccnc(N(CC34CCC(c5noc(C(C)(C)C)n5)(CC3)CC4)C(=O)C34CC(F)(C3)C4)c2)cn1` [Example 536, N-((4-(5-(tert-butyl)-1,2,4-oxadiazol-3-yl)bicyclo[2.2.2]octan-1-yl)methyl)-N-(6-ethoxy-[3,4′-bipyridin]-2′-yl)-3-fluorobicyclo[1.1.1]pentane-1-carboxamide] the value was 29 nM.
For `CC(F)(F)c1nc(C23CCC(CN(C(=O)C45CC(F)(C4)C5)c4cccc(-c5cnc6nc(C7CC7)sc6c5)c4)(CC2)CC3)no1` [Example 530, N-(3-(2-cyclopropylthiazolo[4,5-b]pyridin-6-yl)phenyl)-N-((4-(5-(1,1-difluoroethyl)-1,2,4-oxadiazol-3-yl)bicyclo[2.2.2]octan-1-yl)methyl)-3-fluorobicyclo[1.1.1]pentane-1-carboxamide], the response was half-maximal at 145 nM (EC50). This EC50 is about 5-fold higher than that of the compound before.
On to `CCOc1ncc(-c2cccc(N(CC34CCC(c5nc(C(C)(C)C)no5)(CC3)CC4)C(=O)C34CC(N)(C3)C4)c2)cn1` [Example 506, 3-amino-N-((4-(3-(tert-butyl)-1,2,4-oxadiazol-5-yl)bicyclo[2.2.2]octan-1-yl)methyl)-N-(3-(2-ethoxypyrimidin-5-yl)phenyl)bicyclo[1.1.1]pentane-1-carboxamide], for which the EC50 worked out at 2370 nM.
In turn, `O=C(N(CC12CCC(c3ccc(C(F)(F)F)cn3)(CC1)CC2)c1cccc(-c2ncc(OC(F)F)cn2)c1)C12CC(F)(C1)C2` [Example 499, N-(3-(5-(difluoromethoxy)pyrimidin-2-yl)phenyl)-3-fluoro-N-((4-(5-(trifluoromethyl)pyridin-2-yl)bicyclo[2.2.2]octan-1-yl)methyl)bicyclo[1.1.1]pentane-1-carboxamide] yielded an EC50 of 135 nM.

The assay is the same for the next values; noted with them: Gal4-hFXR fusion construct, HEK293 reporter cells; response relative to 8 μM GW-4064.
The compound `CC(C)(C)NC(=O)N(CC12CCC(c3noc(C(F)(F)F)n3)(CC1)CC2)c1cccc(-c2ccc(OC(F)F)cc2)c1` [Example 612, 3-(tert-butyl)-1-(4′-(difluoromethoxy)-[1,1′-biphenyl]-3-yl)-1-((4-(5-(trifluoromethyl)-1,2,4-oxadiazol-3-yl)bicyclo[2.2.2]octan-1-yl)methyl)urea] gave an EC50 of 65 nM.
Turning to `CC1(c2nc(C34CCC(CN(C(=O)C56CC(F)(C5)C6)c5cccc(-c6cnc(C(F)(F)F)nc6)c5)(CC3)CC4)no2)CC1` [Example 404, 3-fluoro-N-((4-(5-(1-methylcyclopropyl)-1,2,4-oxadiazol-3-yl)bicyclo[2.2.2]octan-1-yl)methyl)-N-(3-(2-(trifluoromethyl)pyrimidin-5-yl)phenyl)bicyclo[1.1.1]pentane-1-carboxamide], a half-maximal effect (EC50) was put at 221 nM.
With `CC(C)c1noc(C23CCC(CN(C(=O)C45CC(F)(C4)C5)c4cccc(-c5ccc6c(c5)OC(F)(F)O6)c4)(CC2)CC3)n1` [Example 386, N-(3-(2,2-difluorobenzo[d][1,3]dioxol-5-yl)phenyl)-3-fluoro-N-((4-(3-isopropyl-1,2,4-oxadiazol-5-yl)bicyclo[2.2.2]octan-1-yl)methyl)bicyclo[1.1.1]pentane-1-carboxamide], the EC50 amounted to 274 nM.
Consider `CC(C)S(=O)(=O)Nc1ccc(-c2cccc(N(CC34CCC(c5noc(C(C)(C)C)n5)(CC3)CC4)C(=O)C34CC(F)(C3)C4)c2)cc1` [Example 448, N-((4-(5-(tert-butyl)-1,2,4-oxadiazol-3-yl)bicyclo[2.2.2]octan-1-yl)methyl)-3-fluoro-N-(4′-((1-methylethyl)sulfonamido)-[1,1′-biphenyl]-3-yl)bicyclo[1.1.1]pentane-1-carboxamide], for which the EC50 was 277 nM.
For the compound `CC(C)Oc1ccc(-c2cccc(N(CC34CCC(c5cc(C6(F)CC6)nn5C)(CC3)CC4)C(=O)OC(C)(C)C(F)(F)F)c2)cc1` [Example 655, 1,1,1-trifluoro-2-methylpropan-2-yl ((4-(3-(1-fluorocyclopropyl)-1-methyl-1H-pyrazol-5-yl)bicyclo[2.2.2]octan-1-yl)methyl)(4′-isopropoxy-[1,1′-biphenyl]-3-yl)carbamate], the EC50 was 819 nM.
`O=C(N(CC12CCC(c3nc(C4CC4)no3)(CC1)CC2)c1cccc(-c2nc3cc(F)ccc3o2)c1)C12CC(F)(C1)C2` [Example 559, N-((4-(3-Cyclopropyl-1,2,4-oxadiazol-5-yl)bicyclo[2.2.2]octan-1-yl)methyl)-3-fluoro-N-(3-(5-fluorobenzo[d]oxazol-2-yl)phenyl)bicyclo[1.1.1]pentane-1-carboxamide] returned an EC50 of 217 nM. This EC50 lies about 3.8-fold lower than the previous one.
`Cc1cnc(-c2cccc(N(CC34CCC(c5nc(C(C)C)no5)(CC3)CC4)C(=O)C34CC(F)(C3)C4)c2)nc1` [Example 393, 3-fluoro-N-((4-(3-isopropyl-1,2,4-oxadiazol-5-yl)bicyclo[2.2.2]octan-1-yl)methyl)-N-(3-(5-methylpyrimidin-2-yl)phenyl)bicyclo[1.1.1]pentane-1-carboxamide] had an EC50 of 49 nM.
`CC(C)Oc1ccc(-c2cc(N(CC34CCC(c5noc(C6(F)CC6)n5)(CC3)CC4)C(=O)[C@H]3C[C@](O)(C(F)(F)F)C3)ccc2F)cc1` [Example 581, (cis)-N-(6-fluoro-4′-isopropoxy-[1,1′-biphenyl]-3-yl)-N-((4-(5-(1-fluorocyclopropyl)-1,2,4-oxadiazol-3-yl)bicyclo[2.2.2]octan-1-yl)methyl)-3-hydroxy-3-(trifluoromethyl)cyclobutane-1-carboxamide]: the EC50 worked out at 74 nM.
In turn, `CCOc1ncc(-c2cccc(N(CC34CCC(c5noc(C(C)C)n5)(CC3)CC4)C(=O)C34CC(F)(C3)C4)c2)cn1` [Example 429, N-(3-(2-ethoxypyrimidin-5-yl)phenyl)-3-fluoro-N-((4-(5-isopropyl-1,2,4-oxadiazol-3-yl)bicyclo[2.2.2]octan-1-yl)methyl)bicyclo[1.1.1]pentane-1-carboxamide] returned an EC50 of 46 nM.
Compound `CC(C)c1noc(C23CCC(CN(C(=O)C45CC(F)(C4)C5)c4cccc(-c5ccc(C(F)(F)F)cc5)c4)(CC2)CC3)n1` [Example 380, 3-fluoro-N-((4-(3-isopropyl-1,2,4-oxadiazol-5-yl)bicyclo[2.2.2]octan-1-yl)methyl)-N-(4′-(trifluoromethyl)-[1,1′-biphenyl]-3-yl)bicyclo[1.1.1]pentane-1-carboxamide] had an EC50 of 283 nM.
On the same count and under the same terms, the value for `CC(C)Oc1ccc(-c2cc(N(CC34CCC(c5noc(C(C)(C)F)n5)(CC3)CC4)C(=O)N[C@H]3CC[C@](C)(OC(F)F)CC3)ccc2F)cc1` [Example 653, 3-((trans)-4-(difluoromethoxy)-4-methylcyclohexyl)-1-(6-fluoro-4′-isopropoxy-[1,1′-biphenyl]-3-yl)-1-((4-(5-(2-fluoropropan-2-yl)-1,2,4-oxadiazol-3-yl)bicyclo[2.2.2]octan-1-yl)methyl)urea] was 145 nM.
For `CC(C)(C)c1nc(C23CCC(CN(C(=O)C45CC(F)(C4)C5)c4cccc(-c5ncc(OC(F)F)cn5)c4)(CC2)CC3)no1` [Example 452, N-((4-(5-(tert-butyl)-1,2,4-oxadiazol-3-yl)bicyclo[2.2.2]octan-1-yl)methyl)-N-(3-(5-(difluoromethoxy)pyrimidin-2-yl)phenyl)-3-fluorobicyclo[1.1.1]pentane-1-carboxamide], a half-maximal response (EC50) required 17 nM.
Regarding `Cc1nc2c(C(F)(F)F)cc(-c3cccc(N(CC45CCC(c6nc(C7CC7)no6)(CC4)CC5)C(=O)C45CC(F)(C4)C5)c3)cn2n1` [Example 321, N-((4-(3-cyclopropyl-1,2,4-oxadiazol-5-yl)bicyclo[2.2.2]octan-1-yl)methyl)-3-fluoro-N-(3-(2-methyl-8-(trifluoromethyl)-[1,2,4]triazolo[1,5-a]pyridin-6-yl)phenyl) bicyclo[1.1.1]pentane-1-carboxamide], the EC50 was 1460 nM.
As for `Cn1nc(C2CC2)cc1C12CCC(CN(C(=O)C34CC(F)(C3)C4)c3cc(-c4ccc(OC(F)F)cc4)ccn3)(CC1)CC2` [Example 545, N-((4-(3-cyclopropyl-1-methyl-1H-pyrazol-5-yl)bicyclo[2.2.2]octan-1-yl)methyl)-N-(4-(4-(difluoromethoxy)phenyl)pyridin-2-yl)-3-fluorobicyclo[1.1.1]pentane-1-carboxamide], the EC50 is 115 nM.
Compound `O=C(C1CC(O)(C(F)(F)F)C1)N(CC12CCC(NS(=O)(=O)C(F)(F)F)(CC1)CC2)c1cccc(-c2ccc(OC(F)F)cc2)c1` (stereo not drawn) [Example 603, (cis)-N-(4′-(difluoromethoxy)-[1,1′-biphenyl]-3-yl)-3-hydroxy-3-(trifluoromethyl)-N-((4-((trifluoromethyl)sulfonamido)bicyclo[2.2.2]octan-1-yl)methyl)cyclobutane-1-carboxamide] displayed an EC50 of 1820 nM.
Still for that read-out and setting: for `CC(C)(O)c1ccc(-c2cccc(N(CC34CCC(c5noc(C(C)(C)F)n5)(CC3)CC4)C(=O)N[C@H]3C[C@]4(C[C@@H](O)C4)C3)c2)cc1` (stereo partly drawn) [Example 664, 1-((4-(5-(2-fluoropropan-2-yl)-1,2,4-oxadiazol-3-yl)bicyclo[2.2.2]octan-1-yl)methyl)-1-(4′-(2-hydroxypropan-2-yl)-[1,1′-biphenyl]-3-yl)-3-((2S,4S,6S)-6-hydroxyspiro[3.3]heptan-2-yl)urea] the value was 47 nM; for `Cc1cn2cc(-c3cccc(N(CC45CCC(c6nc(C7CC7)no6)(CC4)CC5)C(=O)C45CC(F)(C4)C5)c3)c(C)cc2n1` [Example 320, N-((4-(3-cyclopropyl-1,2,4-oxadiazol-5-yl)bicyclo[2.2.2]octan-1-yl)methyl)-N-(3-(2,7-dimethylimidazo[1,2-a]pyridin-6-yl)phenyl)-3-fluorobicyclo[1.1.1]pentane-1-carboxamide], 493 nM.
